Source: publication PMC8699473, “An Easily Expandable Multi-Drug LC-MS Assay for the Simultaneous Quantification of 57 Oral Antitumor Drugs in Human Plasma” (Cancers, 2021)

How the values were obtained:
[1] = Autosampler stability of ready for injection samples; assay type: physicochemical, human
[2] = parameters: method as in supplement references [1-55] as printed per drug; details: minimum steady-state blood plasma concentration after multiple dose administration; ref supplement references [1-55] per drug; cited from earlier work

| Structure (SMILES) | Autosampler (24h, 4°C) Accuracy [%] ([1]; validation standard 2xLLOV) | Autosampler (72h, 4°C) Accuracy [%] ([1]; validation standard 2xLLOV) | Autosampler (24h, 4°C) Accuracy [%] ([1]; validation standard LLOV) | Autosampler (72h, 4°C) Accuracy [%] ([1]; validation standard LLOV) | Autosampler (24h, 4°C) Accuracy [%] ([1]; validation standard MOV) | Autosampler (72h, 4°C) Accuracy [%] ([1]; validation standard MOV) | Autosampler (24h, 4°C) Accuracy [%] ([1]; validation standard ULOV) | Autosampler (72h, 4°C) Accuracy [%] ([1]; validation standard ULOV) | cmin [2] |
| --- | --- | --- | --- | --- | --- | --- | --- | --- | --- |
| C[C@]12CC[C@H](O)CC1=CC[C@@H]1[C@@H]2CC[C@]2(C)C(c3cccnc3)=CC[C@@H]12 [Abiraterone] | 98.9% | 97.9% | 90.8% | 94.9% | 104.6% | 101.6% | 100.2% | 104.1% | 9.3 ng/mL |
| CN(C)C/C=C/C(=O)Nc1cc2c(Nc3ccc(F)c(Cl)c3)ncnc2cc1O[C@H]1CCOC1 [Afatinib] | 103.2% | 99.3% | 91.7% | 83.0% | 102.6% | 103.4% | 98.7% | 99.3% | 14.4 ng/mL |
| O=C1CN2Cc3c(ccc(Cl)c3Cl)N=C2N1 [Anagrelide] | 113.2% | 106.1% | 111.7% | 110.5% | 104.6% | 96.8% | 101.8% | 98.2% |  |
| CNC(=O)c1ccccc1Sc1ccc2c(/C=C/c3ccccn3)n[nH]c2c1 [Axitinib] | 101.2% | 104.9% | 105.9% | 97.7% | 102.7% | 100.0% | 100.4% | 99.1% | 5 ng/mL |
| COc1cc(N2CCC(N3CCN(C)CC3)CC2)ccc1Nc1ncc(Cl)c(Nc2ccccc2P(C)(C)=O)n1 [Brigatinib] | 96.4% | 91.9% | 90.7% | 85.3% | 104.4% | 95.5% | 96.1% | 96.6% | 520 ng/mL |
| Cc1ccc(NC(=O)c2ccc(CN3CCN(C)CC3)cc2)cc1Nc1nccc(-c2cccnc2)n1 [Imatinib] | 115.2% | 116.1% | 102.3% | 103.7% | 108.3% | 101.7% | 95.3% | 95.2% |  |
| COc1cc2nccc(Oc3ccc(NC(=O)NC4CC4)c(Cl)c3)c2cc1C(N)=O [Lenvatinib] | 102.4% | 97.9% | 110.0% | 103.7% | 100.6% | 98.6% | 102.6% | 102.7% |  |
| CO[C@@H]1[C@H](N(C)C(=O)c2ccccc2)C[C@H]2O[C@]1(C)n1c3ccccc3c3c4c(c5c6ccccc6n2c5c31)C(=O)NC4 [Midostaurin] | 103.3% | 103.0% | 109.7% | 108.2% | 101.4% | 103.7% | 102.8% | 97.9% |  |
| Cc1[nH]c2ccccc2c1CCNCc1ccc(/C=C/C(=O)NO)cc1 [Panobinostat] | 100.3% | 95.4% | 83.8% | 73.7% | 102.4% | 101.0% | 95.4% | 101.1% |  |
| O=c1[nH]c(=O)n([C@H]2C[C@H](O)[C@@H](CO)O2)cc1C(F)(F)F [Trifluridine] | 117.8% | 107.4% | 97.0% | 86.9% | 113.1% | 102.7% | 104.4% | 98.4% |  |
